Columns and labels:
Type in all cases: in vivo
[1] = test system: winter wheat (Vershin variety); test: Winter wheat seed treatment with BHMPA salts: germination energy and germination rate
Procedure, shortened: (§1)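 Corn, winter wheat and rice seeds (50 per dish, on filter paper) were soaked for 1 h in BHMPA or its metal salts at 1·10^−6-1·10^−12%, with water as control. Germination energy was read on day 4 and germination rate on day 8 for wheat and day 7 for rice and corn, following GOST 12038-84, as the mean of four replicates.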

[2] = test system: corn (Krasnodar 385 MV variety); test: Corn seed treatment with BHMPA salts: germination energy and germination rate
Procedure, shortened: as §1

[3] = test system: corn (Krasnodar 385 MV variety); test: Corn seed treatment with BHMPA salts: germinating power
Procedure, shortened: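 Seeds (50 per Petri dish on two layers of filter paper) soaked 1 h in BHMPA or its Ca, Mg, Na, Co, Mn, Cu or Zn salts at 1·10^−6-1·10^−12%, with water controls. Germination energy read on day 4, germination on day 8 (wheat) or day 7 (rice, corn), as % means of four replicates. Germinating power taken as root and sprout length plus wet and dry mass per 100 seedlings.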

[4] = winter wheat Vershin, 1·10^−6% solution
[5] = winter wheat Vershin, 1·10^−7% solution
[6] = winter wheat Vershin, 1·10^−8% solution
[7] = winter wheat Vershin, 1·10^−9% solution
[8] = winter wheat Vershin, 1·10^−10% solution
[9] = winter wheat Vershin, 1·10^−11% solution
[10] = winter wheat Vershin, 1·10^−12% solution
[11] = winter wheat, comparative study vs Melaphen, 1·10^−11% solution
[12] = comparative study vs Melaphen, 1·10^−9% solution
[13] = corn seeds, solution concentration 1 · 10^−6%, magnesium salt of BHMPA
[14] = corn seeds, solution concentration 1 · 10^−7%, magnesium salt of BHMPA
[15] = corn seeds, solution concentration 1 · 10^−8%, magnesium salt of BHMPA
[16] = corn seeds, solution concentration 1 · 10^−9%, magnesium salt of BHMPA
[17] = corn seeds, solution concentration 1 · 10^−10%, magnesium salt of BHMPA
[18] = corn seeds, solution concentration 1 · 10^−11%, magnesium salt of BHMPA
[19] = corn seeds, solution concentration 1 · 10^−12%, magnesium salt of BHMPA
[20] = corn, over the tested concentrations

O=P([O-])(CO)CO.O=P([O-])(CO)CO.[Mg+2] [Mg-salt, Magnesium BHMPA Salt]
Germination energy [1, 4]: 85.0%
Germination rate [1, 4]: 89.3%
Germination energy [1, 5]: 88.4%
Germination rate [1, 5]: 92.0%
Germination energy [1, 6]: 88.8%
Germination rate [1, 6]: 92.0%
Germination energy [1, 7]: 89.3%
Germination rate [1, 7]: 93.0%
Germination energy [1, 8]: 89.9%
Germination rate [1, 8]: 93.3%
Germination energy [1, 9]: 93.1%
Germination rate [1, 9]: 96.0%
Germination energy [1, 10]: 90.0%
Germination rate [1, 10]: 93.3%
Germination energy [1, 11]: 93.3%
Germination rate [1, 11]: 96.7%
Germination energy ([2]; 1·10^−6% solution): 82.3%
Germination rate ([2]; 1·10^−6% solution): 84.7%
Germination energy ([2]; 1·10^−7% solution): 85.3%
Germination rate ([2]; 1·10^−7% solution): 89.0%
Germination energy ([2]; 1·10^−8% solution): 87.7%
Germination rate ([2]; 1·10^−8% solution): 93.3%
Germination energy ([2]; 1·10^−9% solution): 89.71%
Germination rate ([2]; 1·10^−9% solution): 95.8%
Germination energy ([2]; 1·10^−9% solution, listed as Mg): 89.7%
Germination energy ([2]; 1·10^−10% solution): 90.3%
Germination rate ([2]; 1·10^−10% solution): 93.7%
Germination energy ([2]; 1·10^−11% solution): 88.0%
Germination rate ([2]; 1·10^−11% solution): 91.7%
Germination energy ([2]; 1·10^−12% solution): 86.7%
Germination rate ([2]; 1·10^−12% solution): 90.8%
Germination energy [2, 12]: 86.0%
Germination rate [2, 12]: 95.7%
optimum concentration for treating corn seeds before sowing ([3]; corn): 1·10^−9%
Length, root [3, 13]: 6.4 cm
Length, root, + % to control [3, 13]: 21%
Length, sprout [3, 13]: 2.9 cm
Length, sprout, + % to control [3, 13]: −12%
Mass, dry, root [3, 13]: 1.60 g/100 plantlings
Mass, dry, root, + % to control [3, 13]: 9.5%
Mass, dry, sprout [3, 13]: 1.07 g/100 plantlings
Mass, dry, sprout, + % to control [3, 13]: 11%
Mass, wet, root [3, 13]: 10.29 g/100 plantlings
Mass, wet, root, + % to control [3, 13]: 17%
Mass, wet, sprout [3, 13]: 7.17 g/100 plantlings
Mass, wet, sprout, + % to control [3, 13]: 12%
Length, root [3, 14]: 7.0 cm
Length, root, + % to control [3, 14]: 32%
Length, sprout [3, 14]: 3.3 cm
Length, sprout, + % to control [3, 14]: 0%
Mass, dry, root [3, 14]: 1.81 g/100 plantlings
Mass, dry, root, + % to control [3, 14]: 24%
Mass, dry, sprout [3, 14]: 1.12 g/100 plantlings
Mass, dry, sprout, + % to control [3, 14]: 17%
Mass, wet, root [3, 14]: 10.86 g/100 plantlings
Mass, wet, root, + % to control [3, 14]: 24%
Mass, wet, sprout [3, 14]: 7.93 g/100 plantlings
Mass, wet, sprout, + % to control [3, 14]: 23.5%
Length, root [3, 15]: 8.5 cm
Length, root, + % to control [3, 15]: 60%
Length, sprout [3, 15]: 3.5 cm
Length, sprout, + % to control [3, 15]: 6%
Mass, dry, root [3, 15]: 1.91 g/100 plantlings
Mass, dry, root, + % to control [3, 15]: 31%
Mass, dry, sprout [3, 15]: 1.19 g/100 plantlings
Mass, dry, sprout, + % to control [3, 15]: 24%
Mass, wet, root [3, 15]: 11.64 g/100 plantlings
Mass, wet, root, + % to control [3, 15]: 33%
Mass, wet, sprout [3, 15]: 8.89 g/100 plantlings
Mass, wet, sprout, + % to control [3, 15]: 38%
Length, root [3, 16]: 9.1 cm
Length, sprout [3, 16]: 3.8 cm
Mass, dry, root [3, 16]: 2.02 g/100 plantlings
Mass, dry, root, + % to control [3, 16]: 38%
Mass, dry, sprout [3, 16]: 1.27 g/100 plantlings
Mass, dry, sprout, + % to control [3, 16]: 32%
Mass, wet, root [3, 16]: 12.42 g/100 plantlings
Mass, wet, root, + % to control [3, 16]: 42%
Mass, wet, sprout [3, 16]: 10.35 g/100 plantlings
Mass, wet, sprout, + % to control [3, 16]: 61%
Length, root [3, 17]: 8.3 cm
Length, root, + % to control [3, 17]: 57%
Length, sprout [3, 17]: 3.6 cm
Length, sprout, + % to control [3, 17]: 9%
Mass, dry, root [3, 17]: 1.96 g/100 plantlings
Mass, dry, root, + % to control [3, 17]: 34%
Mass, dry, sprout [3, 17]: 1.20 g/100 plantlings
Mass, dry, sprout, + % to control [3, 17]: 25%
Mass, wet, root [3, 17]: 11.86 g/100 plantlings
Mass, wet, root, + % to control [3, 17]: 35%
Mass, wet, sprout [3, 17]: 8.62 g/100 plantlings
Mass, wet, sprout, + % to control [3, 17]: 34%
Length, root [3, 18]: 8.1 cm
Length, root, + % to control [3, 18]: 53%
Length, sprout [3, 18]: 3.0 cm
Length, sprout, + % to control [3, 18]: −9%
Mass, dry, root [3, 18]: 1.81 g/100 plantlings
Mass, dry, root, + % to control [3, 18]: 24%
Mass, dry, sprout [3, 18]: 1.10 g/100 plantlings
Mass, dry, sprout, + % to control [3, 18]: 14.5%
Mass, wet, root [3, 18]: 10.04 g/100 plantlings
Mass, wet, root, + % to control [3, 18]: 14%
Mass, wet, sprout [3, 18]: 8.18 g/100 plantlings
Mass, wet, sprout, + % to control [3, 18]: 27%
Length, root [3, 19]: 7.8 cm
Length, root, + % to control [3, 19]: 47%
Length, sprout [3, 19]: 2.8 cm
Length, sprout, + % to control [3, 19]: −15%
Mass, dry, root [3, 19]: 1.57 g/100 plantlings
Mass, dry, root, + % to control [3, 19]: 7.5%
Mass, dry, sprout [3, 19]: 0.94 g/100 plantlings
Mass, dry, sprout, + % to control [3, 19]: −2%
Mass, wet, root [3, 19]: 9.18 g/100 plantlings
Mass, wet, root, + % to control [3, 19]: 5%
Mass, wet, sprout [3, 19]: 7.04 g/100 plantlings
Mass, wet, sprout, + % to control [3, 19]: 10%
Length, root, + % to control ([3]; corn, 1·10^−9% solution): 72%
Length, sprout, + % to control ([3]; corn, 1·10^−9% solution): 15%
Mass, dry, root, + % to control ([3]; corn, 1·10^−9% solution): 38%
Mass, dry, sprout, + % to control ([3]; corn, 1·10^−9% solution): 32%
Mass, wet, root, + % to control ([3]; corn, 1·10^−9% solution): 42%
Mass, wet, sprout, + % to control ([3]; corn, 1·10^−9% solution): 61%
increase of germinating power of the roots [3, 20]: 21%-72%
sprout length changes [3, 20]: −15% to +15%
